Reference: ChEMBL document CHEMBL5729124, “Autotaxin inhibitor compounds” (2022)

What follows are compounds tested against Autotaxin (Homo sapiens, UniProt Q13822) (assay: Human Autotaxin Assay: ATX activity is assayed in concentrated conditioned media from Hep3B human hepatocellular carcinoma cells by measuring the amount of choline released from the substrate, lysophosphatidylcholine (LPC) as it is cleaved to LPA. Conditioned media is collected from confluent Hep3B cells and concentrated 20-fold using Centriprep-30 filter devices (Millipore).).

Compound | IC50
CCCn1cc(-n2c(Br)c(Sc3cccc(C(=O)O)c3)c3ccc(Cl)cc32)cn1 | < 500 nM
CC(C)(CO)Cn1cc(-n2c(C3CC3)c(Sc3cccc(C(=O)O)c3F)c3ccc(Cl)c(F)c32)cn1 | < 500 nM
C#CCCCCn1cc(-n2c(C3CC3)c(Sc3cccc(C(=O)O)c3F)c3ccc(Cl)c(F)c32)cn1 | < 500 nM
